Data published in PubChem BioAssay (NCI).
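All cell lines were grown in 96-well plates and treated with compound for 48 hours. Definition used: TGI = concentration required for complete inhibition of growth.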

Columns and labels:
Experiment in all cases: NCI tumour cell line growth inhibition, 48 h
MDA-MB-231 breast = test system: MDA-MB-231 breast
OVCAR-4 ovarian = test system: OVCAR-4 ovarian
RPMI-8226 leukemia = test system: RPMI-8226 leukemia
OVCAR-5 ovarian = test system: OVCAR-5 ovarian
SK-MEL-2 melanoma = test system: SK-MEL-2 melanoma
UACC-257 melanoma = test system: UACC-257 melanoma
SNB-19 CNS = test system: SNB-19 CNS
OVCAR-8 ovarian = test system: OVCAR-8 ovarian
PC-3 prostate = test system: PC-3 prostate
NCI-H460 lung = test system: NCI-H460 lung
CCRF-CEM leukemia = test system: CCRF-CEM leukemia
HT29 colon = test system: HT29 colon
MDA-MB-435 = test system: MDA-MB-435
SK-OV-3 ovarian = test system: SK-OV-3 ovarian
HCT-15 colon = test system: HCT-15 colon
SW-620 colon = test system: SW-620 colon
A549 NSCLC = test system: A549 NSCLC
SF-268 CNS = test system: SF-268 CNS
UO-31 renal = test system: UO-31 renal
RXF 393 renal = test system: RXF 393 renal
MOLT-4 leukemia = test system: MOLT-4 leukemia
ACHN renal = test system: ACHN renal
CAKI-1 renal = test system: CAKI-1 renal
DU-145 prostate = test system: DU-145 prostate
SN12C renal = test system: SN12C renal
TK-10 renal = test system: TK-10 renal
NCI-H23 lung = test system: NCI-H23 lung
HOP-62 NSCLC = test system: HOP-62 NSCLC
SNB-75 CNS = test system: SNB-75 CNS
NCI-H226 lung = test system: NCI-H226 lung
HCC-2998 colon = test system: HCC-2998 colon
OVCAR-3 ovarian = test system: OVCAR-3 ovarian
MDA-N = test system: MDA-N
T-47D breast = test system: T-47D breast
LOX IMVI melanoma = test system: LOX IMVI melanoma
SK-MEL-28 melanoma = test system: SK-MEL-28 melanoma
786-0 renal = test system: 786-0 renal
NCI-H522 lung = test system: NCI-H522 lung
HCT-116 colon = test system: HCT-116 colon
HL-60(TB) leukemia = test system: HL-60(TB) leukemia
COLO 205 colon = test system: COLO 205 colon
MCF7 breast = test system: MCF7 breast
SF-539 CNS = test system: SF-539 CNS
BT-549 breast = test system: BT-549 breast
HS 578T breast = test system: HS 578T breast
SK-MEL-5 melanoma = test system: SK-MEL-5 melanoma
SF-295 CNS = test system: SF-295 CNS
M14 melanoma = test system: M14 melanoma
MALME-3M melanoma = test system: MALME-3M melanoma
EKVX NSCLC = test system: EKVX NSCLC
SR leukemia = test system: SR leukemia
NCI/ADR-RES ovarian = test system: NCI/ADR-RES ovarian
K-562 leukemia = test system: K-562 leukemia
IGROV1 ovarian = test system: IGROV1 ovarian

Measured: TGI

CC(=O)N1C(Nc2cnc3ccccc3c2)CCN1c1ccccc1 (centres undefined)
> 10 µM: all assays above
